Test results as given in publication PMC5442318, “Hundreds of dual-stage antimalarial molecules discovered by a functional gametocyte screen” (Nature Communications, 2017).
Like-named read-outs stand apart in the source and are kept apart here.

Legend:
[1] = tested on: P. falciparum female gametes; assay: Pf FGAA with compounds added 30 min after triggering gametocyte activation (gamete-targeting); format: cell-based, Plasmodium falciparum NF54; conditions: 0h incubation time
[2] = tested on: P. falciparum stage V female gametocytes; assay: P. falciparum female gametocyte activation assay (Pf FGAA), 24 h or 48 h preincubation, Pfs25 expression readout; format: cell-based, Plasmodium falciparum NF54; parameters: key to Biological profile: 49 compounds that were only active with a 48 h exposure (designated as slow-acting); 29 compounds additionally showed activity with only 24 h exposure (designated as fast-acting); when the compounds were added 30 min after triggering gametocyte activation, 12 compounds prevented cell surface expression of Pfs25 (designated as gamete-targeting); conditions: for Pf FGAA classification: SLOW / FAST / GAMETE from activity at 48h, 24h, 0h incubation
Method in brief: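 Purified stage V gametocytes from P. falciparum NF54 gametocyte cultures were exposed to compounds for 24 h or 48 h at 37 °C under 3% O2/5% CO2, then activated by temperature drop plus xanthurenic acid. Activated females were stained with Cy3-anti-Pfs25 (0.5 μg ml^−1) for 24 h at 26 °C and counted by high-content imaging; pIC50 by nonlinear regression.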

[3] = tested on: P. falciparum asexual blood stages; conditions: cited from earlier work; for IC50: read-out: Pf Asexual blood stages XC50
[4] = tested on: P. falciparum stages IV–V gametocytes; assay: Gametocytocidal ATP-depletion assay (gametocyte ATP bioluminescence); format: cell-based, Plasmodium falciparum; conditions: for inhibition at 2 µM: Plasmodium falciparum, mean
Method in brief: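 Purified stage IV–V gametocytes (12,500/well) incubated with compound for 48 h at 37 °C under 3% O2/5% CO2. ATP measured by BacTiter-Glo luminescence as a viability surrogate; hits tested at 2 μM single concentration.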

[5] = tested on: HepG2 cells; assay: HepG2 cytotoxicity assay; format: cell-based
Method in brief: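 Post-incubation CellTiter-Glo luminescence; 30 min RT equilibration, 10 min RT stabilization before reading.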

[6] = 24h incubation time, read-out: Pf FGAA IC50 (µM) 24h
[7] = P. falciparum female gametocytes, mean, read-out: Gametocytes mean Pf FGAA IC50
[8] = TCAMS asexual blood stage data, ref 1 (Gamo, F. J. et al., Nature 465, 305-310, 2010)
[9] = TCAMS data, ref 1 (Gamo, F. J. et al., Nature 465, 305-310, 2010)
[10] = mean, read-out: Gametocytes mean Pf FGAA IC50
[11] = TCAMS data, ref 1 (Gamo et al., 2010)
[12] = Plasmodium falciparum, 24h incubation time, read-out: Pf FGAA IC50 (µM) 24h

| Compound | IC50 [1] | IC50 [2, 6] | IC50 [2, 7] | Pf FGAA classification [2] | IC50 [3, 8] | Pf Asexual stages XC50 [3, 9] | Gametocytes mean ATP inhibition at 2µM [4] | HepG2 cells mean TOX50 ([5]; HepG2 cells) | IC50 [2, 10] | IC50 [3, 11] | Gametocytes mean ATP inhibition at 2µM (%) [4] | HepG2 cells mean TOX50 [5] | further results |
| --- | --- | --- | --- | --- | --- | --- | --- | --- | --- | --- | --- | --- | --- |
| N#Cc1ccc(-c2ccc(C(=O)NCC3CCN(CCN4CCC(c5ccc6c(c5OCC(N)=O)CCCC6)CC4)CC3)cc2)cc1 [TCMDC-134563] | > 20 µM | 5.88 µM | 1.26 µM | SLOW | 440 nM | 440 nM | -20.83% | 6.17 µM |  |  |  |  |  |
| CCCc1cc(=O)[nH]c(-n2nc(C)cc2NC(=O)CC(c2ccccc2)c2ccccc2)n1 [TCMDC-124940] | > 20 µM | 0.41 µM | 1.3 µM | FAST | 620 nM | 510 nM | 0.055% | >100 µM |  |  |  |  | HepG2 cells TOX50 ([5]; HepG2 cells): >100 µM |
| Cl.Fc1cc(Cl)ccc1Nc1ccnc2cc(-c3ccc(CN4CCNCC4)o3)ccc12 [TCMDC-138394] | > 20 µM | 10 µM |  | SLOW |  | 280 nM |  |  | 1.91 µM | 280 nM | 1.31% | 12.05 µM |  |
| CN1CCN(Cc2ccc(OCc3cccc(COc4ccc(CN5CCN(C)CC5)cc4I)c3)c(I)c2)CC1.Cl [TCMDC-137239] | 15.1 µM | 6.48 µM |  | SLOW |  | 1010 nM |  |  | 1.85 µM | 1010 nM | -13.43% | 5.01 µM |  |
| FC(F)(F)c1ccc2[nH]c(-c3ccc(-c4ccc(CNCCN5CCNCC5)cc4)cc3)nc2c1.O=C(O)C(F)(F)F [TCMDC-132865] | > 20 µM | > 20 µM | 1.41 µM | SLOW | 1120 nM | 1120 nM | -10.30% | 16.43 µM |  |  |  |  |  |
| Cc1noc(C)c1-c1ccc2c(Nc3nccc4ccccc34)c(C(N)=O)cnc2c1 [TCMDC-136456] | > 20 µM | 3.33 µM |  | SLOW |  | 890 nM |  |  | 1.54 µM | 890 nM | 0.55% | 3.85 µM |  |
| Cc1ccc(C)c2sc(N3CCN(C(=O)c4ccc([N+](=O)[O-])o4)CC3)nc12 [TCMDC-124315] | > 20 µM | 2.82 µM | 1.12 µM | SLOW | 820 nM | 820 nM | 3.06% | 37.65 µM |  |  |  |  |  |
| CN1CCC(NCc2cccc(-c3ccc(S(=O)(=O)NCc4ccccc4)c(F)c3)c2)CC1.O=C(O)C(F)(F)F [TCMDC-132219] | > 20 µM | 12.2 µM | 2.63 µM | SLOW | 320 nM | 320 nM | -1.59% | 5.13 µM |  |  |  |  |  |
| NC1CCN(CCc2ccc(NS(=O)(=O)c3ccc(-c4ccccc4)cc3)cc2)CC1 [TCMDC-134085] |  |  |  | FAST | 1020 nM | 1020 nM |  | 7.17 µM |  |  |  |  | IC50 ([1]; Plasmodium falciparum): > 20 µM; IC50 [2, 12]: 1.98 µM; IC50 ([2]; Plasmodium falciparum, P. falciparum female gametocytes, mean, read-out: Gametocytes mean Pf FGAA IC50): 0.75 µM; inhibition at 2 µM [4]: -6.2%; Selectivity ratio ([5]; HepG2 TOX50 versus Pf FGAA IC50): 9.58 |
| CCOc1ccc(-n2nc3c(Cl)nnc(-c4ccccc4)c3c2-c2ccccc2)cc1 [TCMDC-123899] | > 20 µM | > 20 µM | 0.94 µM | SLOW | 230 nM | 310 nM | -0.60% | >100 µM |  |  |  |  | HepG2 cells TOX50 ([5]; HepG2 cells): >100 µM |
| CN1CCN(c2cc3c(cc2Cl)CCN3C(=O)Nc2ccc(NC(=O)c3ccc(C(F)(F)F)cc3)cc2)CC1.Cl [TCMDC-139270] | > 20 µM | 1.54 µM |  | FAST |  | 1100 nM |  |  | 0.69 µM | 510 nM | 1.67% | 3.99 µM |  |
| CN(C)CCNCc1cccc(-c2ccc3c(Nc4ccc(Oc5ccccn5)cc4)ccnc3c2)c1 [TCMDC-138493] | 2.27 µM | 2.58 µM |  | GAMETE |  | 230 nM |  |  | 0.82 µM | 230 nM | 38.43% | 3.98 µM |  |
| Clc1ccc(-c2csc3ncnc(Cl)c23)cc1 [TCMDC-123811] | > 20 µM | 3.25 µM | 1.57 µM | SLOW | 460 nM | 460 nM | -1.98% | 94.46 µM |  |  |  |  |  |
| COc1cc2nc(-c3ccc(Br)cc3)cc(N)c2cc1OC [TCMDC-138933] |  |  |  | SLOW |  | 170 nM |  |  |  | 170 nM |  | 4.95 µM | IC50 ([1]; Plasmodium falciparum): 8.17 µM; Biological profile ([2]; Pf FGAA with 48 h, 24 h or post-activation addition, active = IC50 below 2 μM): slow-acting; IC50 [2, 12]: 3.91 µM; IC50 ([2]; Plasmodium falciparum, stage V gametocytes, 48 h exposure, read-out: PfFGAA IC50): 0.76 µM; inhibition at 2 µM [4]: 0.89%; Selectivity ratio ([5]; HepG2 TOX50 vs Pf FGAA IC50): 6.53; selectivity ratio (selectivity index) ([5]; HepG2 Tox50 vs Pf FGAA IC50): < 10 |
| CCN(CC)CCN(Cc1ccc(-c2ccc(Cl)cc2)cc1)C(=O)Cn1cc(CN(C)C)c(=O)nc1SCc1ccc(F)cc1 [TCMDC-140406] | > 20 µM | 9.4 µM |  | SLOW |  | 750 nM |  |  | 1.38 µM | 750 nM | -10.76% | 6.61 µM |  |
